# How the values were obtained:
# [1] = tested on: Human Umbilical Vein Endothelial Cells (HUVEC); experiment: Acute NO release from HUVEC of white and black American donors, electrochemical nanosensors; type: cell-based; conditions: for Acute NO Release, Black Donors NO: HUVEC from black American donors; for Acute NO Release, Black Donors NO / Acute NO Release, White Donors NO: acute treatment 1.0 μM, mean±S.D. (n=5); for Acute NO Release, White Donors NO: HUVEC from white donors; for Acute [NO]/[ONOO−] Release Ratio, Black Donors / Acute [NO]/[ONOO−] Release Ratio, White Donors: ratio of NO (Table 1) to ONOO− (Table 3); for NO release after acute treatment (in words): endothelial cells from both white and black American donors, 1.0 μM
# Description: The acute effects of nebivolol racemate, its separate enantiomers, and four stereoselective glucuronide metabolites on endothelial-dependent NO release were tested in Human Umbilical Vein Endothelial Cells (HUVEC). The tissue is isolated from normotensive white and black American donors with matched risk factor profiles. Production of NO is recorded using electrochemical nanosensors following acute treatment with the drugs at 1.0 μM (n=5).
# The donors were between 20-25 years of age, with a mean body mass index (in kg/m^2), of 22.6±1.4 for white donors and 23.1±1.7 for black donors. The identification of race was defined by self report. For FIGS. 1-3, the HUvEC samples were obtained from American Type Culture Collection (Manassas, Va.).
# The baseline is stabilized after about 20 seconds.
# Nanosensors are prepared from carbon fibers.
# human endothelial cells = experiment: Acute ONOO− (peroxynitrite) release from human endothelial cells of white and black donors; type: cell-based; conditions: acute treatment; for Acute ONOO− Release, Black Donors ONOO−: endothelial cells from black donors; for Acute ONOO− Release, White Donors ONOO−: endothelial cells from white donors; for ONOO− (peroxynitrite) release (in words): human endothelial cells
# From the text: The donors were between 20-25 years of age, with a mean body mass index (in kg/m^2), of 22.6±1.4 for white donors and 23.1±1.7 for black donors. The identification of race was defined by self report. For FIGS. 1-3, the HUvEC samples were obtained from American Type Culture Collection (Manassas, Va.). […] However, the amount of OONO^− produced for any of the metabolites was less than that observed for nebivolol. The ratio of NO to OONO^− produced by nebivolol and its glucuronide metabolites was similar following acute administration (Table 4).
Compound,"Acute NO Release, Black Donors NO [1] [nM]","Acute NO Release, White Donors NO [1] [nM]","Acute [NO]/[ONOO−] Release Ratio, Black Donors [1]","Acute [NO]/[ONOO−] Release Ratio, White Donors [1]","Acute ONOO− Release, Black Donors ONOO− (human endothelial cells) [nM]","Acute ONOO− Release, White Donors ONOO− (human endothelial cells) [nM]",ONOO− (peroxynitrite) release (in words) (human endothelial cells),NO release after acute treatment (in words) [1]
"O=C(O)C1OC(OC(CNCC(O)C2CCc3cc(F)ccc3O2)C2CCc3cc(F)ccc3O2)C(O)C(O)C1O (single isomer, unassigned) [G-UDb, l-Nebivolol-11-O-β-D-glucuronide]",139 ± 12,206 ± 12,0.618,1.144,225 ± 16,180 ± 13,greatest activity,
"O[C@@H](CNC[C@H](O)[C@H]1CCc2cc(F)ccc2O1)[C@@H]1CCc2cc(F)ccc2O1 [l-nebivolol, reference compound]",192 ± 9,268 ± 12,0.719,1.202,267 ± 13,223 ± 17,,marked improvement
"O[C@H](CNC[C@@H](O)[C@H]1CCc2cc(F)ccc2O1)[C@@H]1CCc2cc(F)ccc2O1 [d-nebivolol, reference compound]",87 ± 6,127 ± 17,0.750,1.460,116 ± 6,87 ± 6,,marked improvement
"O=C(O)C1OC(OC(CNCC(O)C2CCc3cc(F)ccc3O2)C2CCc3cc(F)ccc3O2)C(O)C(O)C1O [G-UDa, d-Nebivolol-11-O-β-D-glucuronide]",144 ± 10,202 ± 12,0.605,1.122,238 ± 22,180 ± 16,greatest activity,
"OC(CNCC(O)C1CCc2cc(F)ccc2O1)C1CCc2cc(F)ccc2O1 (racemic) [nebivolol, α,α′-[iminobismethylene]bis[6-fluoro-3,4-dihydro-2H-1-benzopyran-2-methanol]]",148 ± 10,218 ± 11,0.612,1.130,242 ± 17,193 ± 16,,marked improvement
"O=C(O)C1OC(OC(CNCC(O)C2CCc3cc(F)ccc3O2)C2CCc3cc(F)ccc3O2)C(O)C(O)C1O [G-UDc, d-Nebivolol-11′-O-β-D-glucuronide]",129 ± 10,188 ± 12,0.632,1.133,204 ± 13,166 ± 13,,
"O=C(O)C1OC(OC(CNCC(O)C2CCc3cc(F)ccc3O2)C2CCc3cc(F)ccc3O2)C(O)C(O)C1O (single isomer, unassigned) [G-UDd, l-Nebivolol-11′-O-β-D-glucuronide]",117 ± 8,161 ± 11,0.606,1.193,193 ± 17,135 ± 13,,

# Reference: patent publication US20070014734A1, “Glucuronidated nebivolol metabolites” (priority 2005, published 2007)
